Experimental data published in US20090176817A1, “Method of Treatment of Diarrhea-Predominant Irritable Bowel Syndrome in a Subject” (priority 2005, published 2009).
Marks after values point to notes of the source that are not given here.

Columns and labels:
[1] = Study S.241.1.109: interaction with fluvoxamine 50 mg QD; type: in vivo, human; conditions: both, human, in vivo
Protocol: (§1) In an open-label, randomized, parallel-group study in three groups of 12 healthy, male and female subjects (aged 19 to 45 years), subjects received a 2 mg single dose of cilansetron on Day 1, 2 mg TID on Days 2-13, and a 2 mg single dose on Day 14. […] All morning doses of cilansetron and enzyme inhibitors were administered immediately after a standard breakfast. […] For each treatment group, log-transformed cilansetron AUC(0-τ) and Cmax values on Day 14 (cilansetron+enzyme inhibitor) were compared statistically versus values on Day 7 (cilansetron alone).
FIG. 42, FIG. 43, and FIG. 44 present geometric mean steady-state plasma concentration-time profiles for cilansetron and its 4-hydroxy metabolites in the absence and presence of concomitant fluvoxamine.

[2] = Study S.241.1.103: 14C mass balance, 8 mg oral and IV; type: in vivo, human; conditions: human, in vivo
Protocol: The extent of absorption, distribution, metabolism, and elimination of cilansetron has been examined in an open-label, randomized, two period, crossover, mass balance study in 6 healthy male subjects who were treated with a single oral and single […] (30-minute infusion) of 8 mg ^14C-labeled (50 K μCi) cilansetron, with a washout of at least 2 weeks between periods. The ^14C-cilansetron was appropriately labeled in the aromatic ring and the label was therefore not metabolically labile. Serial blood samples, urine collection, and fecal collection were performed up to 144 hours following each dose. ^14C-radioactivity was measured in plasma, whole blood, urine, and feces, and unchanged cilansetron was measured in plasma and urine. Identification of metabolites of cilansetron was performed in plasma, urine, and feces. The results of this study are presented in Table 2.7.2.3.15 and the mean concentration-time plots for ^14C-radioactivity and unchanged cilansetron are shown in FIG. 24 and FIG. 25.
Cilansetron and metabolite profiles in plasma, urine, and feces were evaluated using HPLC separation followed by determination of radioactivity using scintillation counting. Cilansetron, (4R)-hydroxy cilansetron, and (4S)-hydroxy cilansetron accounted for 29.3%, 25.7%, and 13.8% of the total radioactivity, respectively, in plasma at 6 hours after oral administration, and for 46.2%, 20.0% and 14.1%3 of the total radioactivity in plasma at 3 hours after IV administration. The cumulative percent of cilansetron and 4-hydroxy metabolites excreted in urine over a 48-hour interval following dosing was 0.5% and 32.8% of the dose, respectively, following oral dosing, and 1.1% and 31.9% of the dose following IV dosing. In the case of fecal excretion over a 96-hour postdose, cilansetron, (4R)-hydroxy cilansetron, and (4S)-hydroxy cilansetron accounted for 1.2%, 6.9%, and 4.6% of the dose following oral administration, and 1.3%, 5.1%, and 11.3% of the dose following IV administration.

human 5-HT3 receptor = target: T1, human 5-HT3 receptor (Homo sapiens, UniProt P46098); test: 5-HT3 receptor binding
T1 sequence (P46098 24-478): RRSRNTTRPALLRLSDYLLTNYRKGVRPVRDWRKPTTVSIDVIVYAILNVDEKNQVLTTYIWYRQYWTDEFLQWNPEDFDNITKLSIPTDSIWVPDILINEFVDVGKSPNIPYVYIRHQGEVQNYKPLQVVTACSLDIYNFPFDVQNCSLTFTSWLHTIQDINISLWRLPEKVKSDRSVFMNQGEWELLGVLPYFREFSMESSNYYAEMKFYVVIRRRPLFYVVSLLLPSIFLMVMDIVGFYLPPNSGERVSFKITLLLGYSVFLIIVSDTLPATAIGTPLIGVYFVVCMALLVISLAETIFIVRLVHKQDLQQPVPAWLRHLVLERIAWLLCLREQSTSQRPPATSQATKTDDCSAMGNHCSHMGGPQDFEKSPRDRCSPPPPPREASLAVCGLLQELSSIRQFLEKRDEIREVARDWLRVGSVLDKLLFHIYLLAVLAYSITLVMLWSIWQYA

[3] = Study S.241.1.109: interaction with paroxetine 20 mg QD; type: in vivo, human; conditions: in vivo
Protocol: as §1
FIG. 50, FIG. 51, and FIG. 52 present geometric mean steady-state plasma concentration-time profiles for cilansetron and its 4-hydroxy metabolites in the absence and presence of concomitant paroxetine. […] These increases in exposure are not clinically significant.

human P-glycoprotein = target: T2, human P-glycoprotein (Homo sapiens, UniProt P08183); test: Study K.241.6026: in vitro transport by P-glycoprotein in PK 1 LLC MDR cells; type: in vitro ADME; conditions: human
T2 construct: expressed in transfected cells; host or cells: PK 1 LLC MDR cells (LLC-PK1 porcine kidney cells expressing human MDR1, by own knowledge)
T2 sequence (P08183 whole entry): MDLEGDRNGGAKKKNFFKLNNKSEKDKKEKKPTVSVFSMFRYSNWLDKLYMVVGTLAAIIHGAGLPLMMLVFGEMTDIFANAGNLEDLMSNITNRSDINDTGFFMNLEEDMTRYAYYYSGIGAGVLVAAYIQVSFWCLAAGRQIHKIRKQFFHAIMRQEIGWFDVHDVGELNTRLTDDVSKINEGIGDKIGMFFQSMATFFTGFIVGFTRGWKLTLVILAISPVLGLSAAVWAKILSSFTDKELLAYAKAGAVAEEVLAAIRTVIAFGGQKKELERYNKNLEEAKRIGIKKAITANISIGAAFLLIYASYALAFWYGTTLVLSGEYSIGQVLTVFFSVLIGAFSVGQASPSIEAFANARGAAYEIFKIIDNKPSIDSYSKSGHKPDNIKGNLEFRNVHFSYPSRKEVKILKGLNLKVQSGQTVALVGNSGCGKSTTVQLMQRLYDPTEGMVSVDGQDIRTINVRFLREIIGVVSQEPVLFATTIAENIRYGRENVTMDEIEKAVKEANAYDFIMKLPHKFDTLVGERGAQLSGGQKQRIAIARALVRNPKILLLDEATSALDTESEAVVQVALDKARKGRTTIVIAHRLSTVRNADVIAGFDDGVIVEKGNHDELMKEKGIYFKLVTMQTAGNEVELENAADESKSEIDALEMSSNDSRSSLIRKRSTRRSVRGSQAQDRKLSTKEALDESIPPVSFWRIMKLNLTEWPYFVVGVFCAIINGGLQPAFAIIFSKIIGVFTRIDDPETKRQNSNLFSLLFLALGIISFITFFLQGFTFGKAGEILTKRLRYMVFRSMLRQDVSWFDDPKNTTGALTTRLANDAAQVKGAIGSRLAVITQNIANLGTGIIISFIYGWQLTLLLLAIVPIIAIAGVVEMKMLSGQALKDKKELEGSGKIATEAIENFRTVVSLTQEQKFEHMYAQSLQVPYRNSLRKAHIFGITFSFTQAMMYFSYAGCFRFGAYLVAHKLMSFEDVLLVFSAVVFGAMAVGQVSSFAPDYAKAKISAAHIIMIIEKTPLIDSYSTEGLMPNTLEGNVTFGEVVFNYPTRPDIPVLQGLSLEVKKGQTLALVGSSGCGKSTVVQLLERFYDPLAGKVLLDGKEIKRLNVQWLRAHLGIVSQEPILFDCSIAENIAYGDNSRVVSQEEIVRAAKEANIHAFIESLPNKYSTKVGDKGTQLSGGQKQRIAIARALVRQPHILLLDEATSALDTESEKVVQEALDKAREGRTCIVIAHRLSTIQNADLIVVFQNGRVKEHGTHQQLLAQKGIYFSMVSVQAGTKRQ

[4] = Study S.241.1.109: single and multiple dose pharmacokinetics 2 mg TID; type: in vivo, human; conditions: human, in vivo
Protocol: In an open-label, randomized, parallel-group study in 36 healthy, male and female subjects (19-45 years), subjects received a 2 mg single dose of cilansetron on Day 1 and 2 mg TID on Days 2-7. The morning doses on Days 1 and 7 were administered immediately after a standard breakfast. Serial blood samples for the measurement of single-dose and steady-state pharmacokinetics of cilansetron and its main metabolites, (4R)-hydroxy cilansetron and (4S)-hydroxy cilansetron, were collected on Day 1 (single dose) up to 24 hours postdose and on Day 7 (multiple dose) up to 8 hours postdose.

Cc1nccn1C[C@H]1CCc2c(c3cccc4c3n2CCC4)C1=O [Cilansetron, (R)-(−)-4,5,6,8,9,10-hexahydro-10-[(2-methyl-1H-imidazol-1-yl)methyl]-11H-pyrido-[3,2,1-jk]-carbazol-11-one]
Increase in cilansetron exposure with fluvoxamine [1]: 3.7-6.6 fold
Mean AUC increase with fluvoxamine [1]: 6.6 fold
Mean Cmax increase with fluvoxamine [1]: 3.7 fold
AUC(0-last) ([2]; iv): 999 (223) ng[-equiv] · h/mL
AUC(0-inf) ([2]; iv, 8 mg): 1217 (299) ng[-equiv] · h/mL
AUC(0-last) ([2]; po): 908 (244) ng[-equiv] · h/mL
CL/F (blood) ([2]; po): 2857 (1912) mL/min
Cmax ([2]; po): 171 (63) ng[-equiv]/mL
AUC(0-inf) ([2]; po, 8 mg): 1047 (248) ng[-equiv] · h/mL
Absorption calculated from percentage renal recovery ([2]; male): 99.8%
Share of urinary excretion within 24 hours of dosing ([2]; male): ≥ 87%
Dose recovered in urine as unchanged drug ([2]; male, 144 h): < 1%
AUC(0-inf) ([2]; male, iv): 209 ng·h/mL
AUC(0-t) ([2]; male, iv): 200 ng·h/mL
CL (plasma) ([2]; male, iv): 118 (42) mL/min
Cumulative percent excreted in urine over 48 hours ([2]; male, iv): 1.1 % of the dose
Fecal excretion over 96 hours ([2]; male, iv): 1.3 % of the dose
Radioactivity in blood cells ([2]; male, iv): 9.5 (4.1) %
Recovery, Fecal ([2]; male, iv): 28.9 (1.8) %
Recovery, Total ([2]; male, iv): 92.3 (1.5) %
T½ ([2]; male, iv): 107 h
Vd ([2]; male, iv): 85.3 L
Vz ([2]; male, iv): 1001 (162) L
half-life ([2]; male, iv): 1.51 h
Share of total radioactivity in plasma ([2]; male, iv, 3 h): 46.2%
clearance ([2]; male, iv, CL (blood)): 1040 mL/min
clearance ([2]; male, iv, CL (plasma)): 655 mL/min
AUC(0-inf) ([2]; male, po): 98.2 ng·h/mL
AUC(0-t) ([2]; male, po): 91.4 ng·h/mL
Absorption of orally administered cilansetron ([2]; male, po): higher than 90%
Cmax ([2]; male, po): 52.9 ng/mL
Cumulative percent excreted in urine over 48 hours ([2]; male, po): 0.5 % of the dose
Fecal excretion over 96 hours ([2]; male, po): 1.2 % of the dose
Radioactivity in blood cells ([2]; male, po): 10.5 (5.7) %
Recovery, Fecal ([2]; male, po): 27.5 (3.2) %
Recovery, Total ([2]; male, po): 90.8 (2.2) %
Tmax ([2]; male, po): 0.51 h
Vd/F ([2]; male, po): 155 L
Vz/F ([2]; male, po): 836 (275) L
half-life ([2]; male, po): 1.23 h
Share of total radioactivity in plasma ([2]; male, po, 6 h): 29.3%
bioavailability ([2]; male, po, Absolute Bioavailability): 49%
pKi (human 5-HT3 receptor): 9.4
Mean AUC increase with paroxetine ([3]; both, human): 20%
Mean Cmax increase with paroxetine ([3]; both, human): 36%
Effect of paroxetine [3]: no significant effect
Concentration required to saturate P-glycoprotein in vitro (human P-glycoprotein): above 1000 ng/mL
Membrane Passage (human P-glycoprotein; 3 h): 33%
P-gp Factor (human P-glycoprotein; 3 h): 3
Tmax ([4]; both sexes): 1.75 h
Tmax at 7 day ([4]; both sexes): 1.5 h
AUC(0-inf) ([4]; both sexes, 2 mg): 22.3 ng·h/mL
AUC ([4]; both sexes, 2 mg, AUC(0-τ)): 21 ng·h/mL
Cmax ([4]; both sexes, 2 mg, Cmax): 6.63 ng/mL
Cmax at 7 day ([4]; both sexes, 2 mg, Cmax): 7.55 ng/mL
Cmax ([4]; both sexes, 2 mg, Plasma Cmax): 6 to 7 ng/mL
half-life ([4]; both sexes, 2 mg, T½): 1.6 h
half-life ([4]; both sexes, Half-life): 1 to 2 h
AUC accumulation ratio Day 7/Day 1 ([4]; both): 105^d %
Cmax accumulation ratio Day 7/Day 1 ([4]; both): 110^e %
Linearity Ratio ([4]; both): 99%
AUC(0-τ) ([4]; both, 2 mg): 23.5 (44) ng · h/mL
Intersubject % CV for AUC and Cmax ([4]; both, 2 mg): 44-56%
T½ ([4]; both, 2 mg): 1.64 (18) h
